Test results reported in paper PMC6753678, “Fueling Open Innovation for Malaria Transmission-Blocking Drugs: Hundreds of Molecules Targeting Early Parasite Mosquito Stages” (Frontiers in Microbiology, 2019).
Read-outs that look alike come from different tables or passages of the source.

Assays:
[1] = tested on: 3D7-strain P. falciparum asexual parasites; assay: P. falciparum asexual growth inhibition assay (Pf GIA); assay type: cell-based, Plasmodium falciparum; details: dose response confirmation; read-out: Pf asexual growth inhibition assays IC50
In short: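 Steps: seed parasites (0.25% parasitemia, 2% hematocrit) onto compound dilutions; incubate 72 h at 37°C, 5% O2/5% CO2; freeze at −70°C and thaw; add LDH reaction mix, read A650 after 10 min. Percent growth inhibition derived from chloroquine and DMSO controls, averaged over three biological replicates.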

[2] = tested on: HepG2 cells; assay: HepG2 cytotoxicity assay; details: for IC50: read-out: HepG2 cytotoxicity assay IC50, dose response confirmation
In short: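 Percent inhibition derived from fluorescent viability readout, normalised to DMSO (negative) and 50 μM doxorubicin (positive). Compound incubation lasted 48 h at 37°C, 5% CO2, with 2,500 HepG2 cells/well in MEM plus 10% FBS and 1% NEAA.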

[3] = tested on: P. berghei ookinete development; details: for % inhibition, Replicate A / % inhibition, Replicate B: primary screen at 1 μM
[4] = unified HepG2 value across the three screens
[5] = read-out: Pb ODA IC50, this manuscript
[6] = read-out: Pb Ookinete development assay IC50, dose response confirmation
[7] = HepG2 values of the three screens unified

Compound | IC50 [1] | IC50 [2] | Unified cytotox [2, 4] | Is compound selective in assay? Pb ODA active? ([3]; 1: YES, 0: NO) | % inhibition, Replicate A [3] | % inhibition, Replicate B [3] | IC50 [3, 5] | IC50 [3, 6] | HepG2 cytoxicity (Pb ODA, this manuscript) [2] | Unified cytotox [2, 7] | Pb ODA (this manuscript) HepG2 cytoxicity ([2]; HepG2 cytotoxicity listed with the Pb ODA data set (this manuscript)) | Is compound selective in assay? Pb ODA active? [3]
COc1cc(Nc2ncc3c(C)nc(-c4cccc(Nc5ccc(CN6CCS(=O)(=O)CC6)cc5)c4)n3n2)cc(OC)c1OC [TCMDC-136003] | 1400 nM | 30900 nM | 30.90 µM | 1 (1: YES) | 93.24% | 100.90% | 180 nM | 175 nM | – | – | – | –
COc1ccc(-c2nc3c(N)nc(N)nc3nc2-c2ccccc2Cl)cc1.COc1ccc(-c2nc3nc(N)nc(N)c3nc2-c2ccccc2Cl)cc1.Cl [TCMDC-138100] | 1550 nM | 73300 nM | 73.28 µM | 0 (0: NO) | 50.02% | 33.60% | 8260 nM | 8260 nM | – | – | – | –
Nc1nc(N)c2c(ccc3c2ccn3CCCC(F)(F)F)n1 [TCMDC-138622] | 105 nM | 370 nM | – | 0 (0: NO) | 33.98% | 53.93% | 6060 nM | 6060 nM | 0.37 µM | 0.37 µM | – | –
CCC(C)CN1CCN(c2ccc(NC(=O)c3cccs3)cc2)C(C)C1.O=C(O)C(F)(F)F (stereo not drawn) [TCMDC-134996] | 753 nM | 60300 nM | – | – | 97.72% | 83.44% | – | 1050 nM | – | – | 60.26 µM | 1 (key: 1: YES; 0: NO)
CCOc1ccc2[nH]c(C)cc(=NN=Cc3cccnc3)c2c1 [TCMDC-142047] | 139 nM | 15100 nM | 15.14 µM | 0 (0: NO) | 59.45% | 48.70% | 4520 nM | 4520 nM | – | – | – | –
CC(C)Cn1ccc2c3c(N)nc(N)nc3ccc21 [TCMDC-137997] | 19 nM | 250 nM | – | 0 (0: NO) | 52.84% | 64.75% | 1400 nM | 1400 nM | 0.25 µM | 0.25 µM | – | –
COc1ccc(C#Cc2ccc(-c3c(C)[nH]c(C)c(Cl)c3=O)cc2)cc1 [TCMDC-135655] | 73 nM | 100000 nM | – | 1 (1: YES) | 78.44% | 70.65% | 1160 nM | 1160 nM | – | 100.00 µM | – | –
COc1ccc(Cl)cc1NC(=O)CN(C)C(=O)c1cnn(-c2ccccc2)n1 [TCMDC-125457] | 222 nM | 100000 nM | 100.00 µM | 1 (1: YES) | 53.54% | 37.16% | 5110 nM | 5110 nM | – | – | – | –
Cc1cc(C2NC(=O)c3ccccc3N2)c(C)n1-c1ccc2c(c1)OCO2 (stereo not drawn) [TCMDC-125051] | 51 nM | 3470 nM | 3.47 µM | 0 (0: NO) | 87.88% | 98.84% | 850 nM | 854 nM | – | – | – | –
C/C=C/COc1ccc(-c2c(C)[nH]c(C)c(Cl)c2=O)cc1 [TCMDC-134729] | 281 nM | 100000 nM | – | 1 (1: YES) | 83.52% | 96.22% | 470 nM | 469 nM | – | 100.00 µM | – | –
